Results taken from patent publication US20130210821A1, “Methods for Treating Obesity” (priority 2010, published 2013).
Where two headings read alike, the source gives them in different places.

Assays:
HFF = HFF inhibition (selectivity); assay type: cell-based, human
HUVEC = HUVEC inhibition (selectivity); assay type: cell-based, human
hMetAP2 = hMetAP2 (Homo sapiens, UniProt P50579); assay: MetAP2 enzyme assay; assay type: biochemical
hMetAP1 = hMetAP1 (Homo sapiens, UniProt P53582); assay: MetAP1 enzyme assay; assay type: biochemical
[1] = Co2+ as metal ion, Table 2, read-out: hMetAP2 Co^2+ IC50
[2] = Mn2+ as metal ion, Table 2, read-out: hMetAP2 Mn^2+ IC50
[3] = Co2+ as metal ion, Table 2, read-out: hMetAP1 Co^2+ IC50
[4] = Mn2+ as metal ion, Table 2, read-out: hMetAP1 Mn^2+ IC50
[5] = Co2+ as metal ion, Table 1, read-out: hMetAP2 CO^2+ IC50
[6] = Mn2+ as metal ion, Table 1, read-out: hMetAP2 Mn^2+ IC50
[7] = Co2+ as metal ion, Table 1, read-out: hMetAP1 CO^2+ IC50
[8] = Mn2+ as metal ion, Table 1, read-out: hMetAP1 Mn^2+ IC50

Chain of hMetAP2 (P50579 whole entry): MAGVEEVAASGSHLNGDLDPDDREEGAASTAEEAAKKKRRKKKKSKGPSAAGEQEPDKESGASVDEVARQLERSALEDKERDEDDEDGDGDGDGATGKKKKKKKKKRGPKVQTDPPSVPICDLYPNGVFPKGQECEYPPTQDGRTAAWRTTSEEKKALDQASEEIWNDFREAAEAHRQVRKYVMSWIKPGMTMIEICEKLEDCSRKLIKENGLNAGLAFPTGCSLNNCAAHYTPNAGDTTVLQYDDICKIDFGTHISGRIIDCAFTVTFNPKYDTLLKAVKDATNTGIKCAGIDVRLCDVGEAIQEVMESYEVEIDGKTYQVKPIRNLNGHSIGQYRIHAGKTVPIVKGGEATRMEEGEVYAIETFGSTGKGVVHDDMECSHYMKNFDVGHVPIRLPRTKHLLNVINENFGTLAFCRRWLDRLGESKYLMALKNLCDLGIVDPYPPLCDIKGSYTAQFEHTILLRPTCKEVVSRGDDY

Structure (SMILES)	IC50 (hMetAP2; [1]) [µM]	IC50 (hMetAP2; [2]) [µM]	IC50 (hMetAP1; [3]) [µM]	IC50 (hMetAP1; [4]) [µM]	IC50 (HFF; Table 2) [µM]	IC50 (HUVEC; Table 2) [µM]	IC50 (hMetAP2; [6]) [µM]	IC50 (hMetAP1; [7]) [µM]	IC50 (hMetAP1; [8]) [µM]	IC50 (HFF; Homo sapiens, Table 1) [µM]	IC50 (HUVEC; Homo sapiens, Table 1) [µM]	further results
CN1CCN(Cc2cc(Cl)c3cccnc3c2O)CC1 [Entry 2e]	–	–	–	–	–	–	–	–	–	–	–	IC50 (HFF; Table 1): 15 µM; IC50 (HUVEC; Table 1): 9.6 µM
O=C(Nc1cc(Cl)ccc1Cl)Oc1ccc(Cl)c2cccnc12 [Entry 4c]	2.2	0.07	> 50	12.6	8	1.2	–	–	–	–	–	–
O=C(Nc1cc(Cl)c(Cl)cc1Cl)Oc1c(Cl)cc(Cl)c2cccnc12 [Entry 4a]	> 50	2.6	> 50	> 50	4.9	1.3	–	–	–	–	–	–
Oc1c(C(c2ccccc2)N2CCOCC2)cc(Cl)c2cccnc12 (stereo not drawn) [Entry 2f]	–	–	–	–	–	–	0.33	14	> 50	19.2	8.6	IC50 (hMetAP2; [5]): 8 µM
O=C(Nc1cc(Cl)ccc1Cl)Oc1c(Cl)cc(Cl)c2cccnc12 [Entry 4b]	> 50	0.9	> 50	> 50	3	0.11	–	–	–	–	–	–
OCCOc1ccc(Cl)c2cccnc12 [Entry 3b]	–	–	–	–	–	–	–	–	–	> 50	> 50	IC50 (hMetAP2): > 50 µM; IC50 (hMetAP2; read-out: hMetAP2 CO^2+ IC50, Co2+ as metal ion, Table 1): > 50 µM; IC50 (hMetAP1): > 50 µM; IC50 (hMetAP1; read-out: hMetAP1 CO^2+ IC50, Co2+ as metal ion, Table 1): > 50 µM
Oc1c(CN2CCOCC2)ccc2cccnc12 [Entry 2c]	–	–	–	–	–	–	15.2	> 50	> 50	9.8	33.3	IC50 (hMetAP2; [5]): > 50 µM
C=CCOc1ccc(Cl)c2cccnc12 [Entry 3a]	–	–	–	–	–	–	–	–	–	> 50	> 50	–
Oc1c(CN2CCCCC2)cc(Cl)c2cccnc12 [Entry 2b]	–	–	–	–	–	–	–	> 50	> 50	–	–	–
OCCN(CCO)Cc1cc(Cl)c2cccnc2c1O [Entry 2a]	–	–	–	–	–	–	28	–	–	0.8	10.7	–
